Assay results from patent US8686046B2, “Compositions and methods for inhibiting sphingosine kinase” (University of Virginia Patent Foundation, priority 2008, dated 2014).

Assays:
SMCs [1] = test: Images of SMCs treated with and without compound; assay type: cell-based; conditions: FIG. 21C
Sphk1 = biological target: T1, Sphk1 (Rattus norvegicus, UniProt Q91V26); test: Sphk1/Sphk2 activity in PDGF-BB-stimulated smooth muscle cells (P32 ATP kinase assay); assay type: cell-based; conditions: cultured rat aortic smooth muscle cells stimulated with PDGF-BB; FIG. 19B
T1 construct: endogenous in cells; host or cells: cultured rat aortic smooth muscle cells
T1 sequence (Q91V26 whole entry): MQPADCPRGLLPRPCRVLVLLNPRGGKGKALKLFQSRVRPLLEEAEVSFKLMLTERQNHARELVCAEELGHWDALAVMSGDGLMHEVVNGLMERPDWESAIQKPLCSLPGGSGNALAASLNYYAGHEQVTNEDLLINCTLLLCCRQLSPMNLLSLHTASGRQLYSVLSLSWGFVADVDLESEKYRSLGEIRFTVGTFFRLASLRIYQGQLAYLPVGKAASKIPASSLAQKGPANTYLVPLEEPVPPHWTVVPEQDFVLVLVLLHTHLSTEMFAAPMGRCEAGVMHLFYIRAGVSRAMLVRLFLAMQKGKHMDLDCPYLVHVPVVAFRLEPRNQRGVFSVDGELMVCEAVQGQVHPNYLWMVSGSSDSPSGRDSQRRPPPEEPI
Method: (§1) Smooth muscle cells (SMCs) are treated with platelet-derived growth factor BB (PDGF-BB), a potent modulator of SMC.
(§2) FIG. 19 illustrates the PDGF-BB increase Sphk1 mRNA, Spkh1 (not Sphk2) activity and S1P production. […] Cultured rat aortic smooth muscle cells were stimulated with PDGF-BB. 19A.) Real-time PCR analysis of Sphk1 mRNA at various time points compared to vehicle control. 19B.) Analysis of Sphk1 and Sphk2 activity (P^32ATP kinase assay). 19C.) S1P concentration in the media 12 hours after stimulating SMCs with PDGF-BB.

SphK = SphK inhibition
S1P production = S1P production by smooth muscle cells (LC/MS); assay type: cell-based, rat
Method: as §1, §2

SMCs [2] = test: Cell cytotoxicity by Promega caspase activity assay; assay type: cell-based; conditions: after 24 hr treatment, FIG. 21B
SMCs [3] = test: PDGF-BB-induced SMC proliferation by BrdU incorporation; assay type: cell-based; conditions: FIG. 21A
Method: Cell proliferation was measured by BrdU incorporation.

CCCCCCCCc1ccc(C(=O)N[C@@H](C)C(=N)N)cc1 [VPC94075]
SMC proliferation as indicated by differences in confluence (SMCs [1]): prevention of SMC proliferation | cell morphology (SMCs [1]): healthy cell morphology | PDGF-BB-induced Sphk1 activity (Sphk1): prevents PDFD-BB-induced Sphk1 activity | SphK inhibition (description) (SphK): non-selective SphK inhibitor | PDGF-BB-induced S1P production (S1P production; 10 uM, S1P in media 12 hours after stimulating SMCs with PDGF-BB, FIG. 19C): blocks PDGF-BB-induced S1P production | endogenous and PDGF-BB-induced S1P production (S1P production; concentration not given): suppresses both endogenous and PDGF-BB-induced S1P production | cell death (SMCs [2]): does not induce cell death

CCCCCCCCc1ccc(C(=O)NC(C)C(N)=O)cc1 (stereo not drawn) [VPC94193]
PDGF-BB-induced SMC proliferation (SMCs [3]): prevented PDGF-BB-induced SMC proliferation | SphK inhibition (description) (SphK): inactive form
